{
  "source": "patent US8088570B2",
  "about": "“Method for screening an agent for preventing or ameliorating wrinkles” (Kao Corporation, priority 2006, dated 2012)",
  "key": {"[1]": {"test_system": "chronically ultraviolet-irradiated mice (wrinkle formation model)", "test": "Wrinkle-improving effect of CLP, visual observation score in chronically ultraviolet-irradiated hairless mice (Reference Example 1)", "format": "in vivo, hairless mice (Hr-1-ICR)", "details": "5 w/v % CLP, 100 μL on dorsal skin for 6 weeks after 12 weeks of UV irradiation", "description": "An experimental system of the chronic and continuous exposure of hairless mice to ultraviolet rays of minimum erythema dose (hereinafter, referred to as 1 MED) or lower (J. Pharm. Pharmacol. 1992; 44: 379-386; and Photochem. Photobiol., 1991; 53: 109-112) was used as a wrinkle formation model to perform a test of wrinkle improvement of 1-carbamimidoyl-L-proline (CLP) in vivo.\nThe mice used were hairless mice (Hr-1-ICR) produced from crossing between Hr-1 (Skh-1) hairless mice and ICR mice. Toshiba SE20 lamps were used as an ultraviolet source, and ultraviolet doses used were measured with UV-RADIOMETER (UVR-305/365D, Eisai). The 6- to 10-week-old hairless mice were exposed once a day and five times a week for 12 consecutive weeks to ultraviolet rays of 1 MED or lower, that is, at a dose of 470 J/m^2 during the 0th (at the start of irradiation) to first week, at a dose of 530 J/m^2 during the first to second week, at a dose of 600 J/m^2 during the second to third week, and at a dose of 670 J/m^2 during the fourth and subsequent weeks, to prepare chronically ultraviolet-irradiated mice. […]\nThe degree of wrinkles formed on the dorsal skins of the mice was determined at the start of CLP application and on the 6th week according to a visual observation score with reference to the documents described above. The score was evaluated on a scale of 7 using the scores below and mean values. […]"}, "K10 protein [2]": {"test_system": "K10 protein", "test": "Epidermal K10 protein level by western blotting in wrinkle model mice (Example 1)", "format": "in vivo, hairless mice", "details": "5 w/v % CLP applied 6 weeks after 9 weeks of UV irradiation", "protocol": "(§1) Six-week-old hairless mice of the same species as in Reference Example 1 were exposed for 9 consecutive weeks to ultraviolet rays at a dose of 470 J/m^2 during the 0th (at the start of irradiation) to first week, at a dose of 530 J/m^2 during the first to second week, at a dose of 600 J/m^2 during the second to third week, and at a dose of 670 J/m^2 during the fourth and subsequent weeks, to prepare chronically ultraviolet-irradiated mice (wrinkle model mice). Then, 100 μL of 5 w/v % CLP solution (50 vol % ethanol solution) was applied once […] and five times a week for 6 consecutive weeks to the whole dorsal skin of each of the mice to examine changes in epidermal keratin protein levels. For controls, 50 vol % ethanol solution (solvent control) and unirradiated age-matched mice (unirradiated mice) were used. Each of the groups comprised 3 mice.\n(§2) After the dorsal skins collected from the mice were cooled on ice immediately after treatment in distilled water at 60° C. for 1 minute, epidermal portions were separated from the dermis with a spatula. […] Labeling was performed by using peroxidase-labeled secondary antibodies, and color was developed by chemiluminescence method (ECL-Plus, Amersham Pharmacia Biotech) and detected with X-ray films. Quantification was performed with Adobe Photoshop (Adobe Systems Incorporated)."}, "K1 protein [3]": {"test_system": "K1 protein", "test": "Epidermal K1 protein level by western blotting, wrinkle formation test (Example 2)", "format": "in vivo, hairless mice", "details": "4% CLP applied with UV irradiation, 12 weeks", "protocol": "(§3) After the dorsal skins collected from the mice were cooled on ice immediately after treatment in distilled water at 60° C. for 1 minute, epidermal portions were separated from the dermis with a spatula. The obtained epidermal portions (containing the stratum corneum) were homogenized in a urea buffer (8 M urea, 50 mM tris-HCl (pH 7.6), 100 mM mercaptoethanol, 1 mM dithiothreitol, and protease inhibitors) to extract proteins. Insoluble matter was removed by centrifugation and supernatant collection. Following the measurement of the total protein concentration (RD DC Protein Assay Kit, Bio-Rad Laboratories Inc.), samples were prepared at the same concentrations. The samples were supplemented with laemmli buffer and treated at 90 to 100° C. for 3 to 5 minutes to give samples for electrophoresis. The samples were electrophoresed on 5 to 15% gradient acrylamide gel or 12.5% acrylamide gel (Bio Rad) at 60 V for 3 hours and blotted onto a nitrocellulose membrane at 250 mA for 1 hour under ice cooling. […] Labeling was performed by using peroxidase-labeled secondary antibodies, and color was developed by chemiluminescence method (ECL-Plus, Amersham Pharmacia Biotech) and detected with X-ray films. Quantification was performed with Adobe Photoshop (Adobe Systems Incorporated). […]\n(§4) Moreover, the quantification of keratin proteins was performed by western blotting in the same way as in Example 1."}, "K6 protein [4]": {"test_system": "K6 protein", "test": "Epidermal K6 protein level by western blotting, wrinkle formation test (Example 2)", "format": "in vivo, hairless mice", "details": "4% CLP applied with UV irradiation, 12 weeks", "protocol": "as §3, §4"}, "K6 protein [5]": {"test_system": "K6 protein", "test": "Epidermal K6 protein level by western blotting in wrinkle model mice (Example 1)", "format": "in vivo, hairless mice", "details": "5 w/v % CLP applied 6 weeks after 9 weeks of UV irradiation; compared with solvent control and unirradiated mice", "protocol": "as §1, §2"}, "K5 protein [6]": {"test_system": "K5 protein", "test": "Epidermal K5 protein level by western blotting in wrinkle model mice (Example 1)", "format": "in vivo, hairless mice", "details": "5 w/v % CLP applied 6 weeks after 9 weeks of UV irradiation", "protocol": "as §1, §2"}, "K10 protein [7]": {"test_system": "K10 protein", "test": "Epidermal K10 protein level by western blotting, wrinkle formation test (Example 2)", "format": "in vivo, hairless mice", "details": "4% CLP applied with UV irradiation, 12 weeks", "protocol": "as §3, §4"}, "K16 protein [8]": {"test_system": "K16 protein", "test": "Epidermal K16 protein level by western blotting in wrinkle model mice (Example 1)", "format": "in vivo, hairless mice", "details": "5 w/v % CLP applied 6 weeks after 9 weeks of UV irradiation; compared with solvent control and unirradiated mice", "protocol": "as §1, §2"}, "K14 protein [9]": {"test_system": "K14 protein", "test": "Epidermal K14 protein level by western blotting in wrinkle model mice (Example 1)", "format": "in vivo, hairless mice", "details": "5 w/v % CLP applied 6 weeks after 9 weeks of UV irradiation", "protocol": "as §1, §2"}, "K1 protein [10]": {"test_system": "K1 protein", "test": "Epidermal K1 protein level by western blotting in wrinkle model mice (Example 1)", "format": "in vivo, hairless mice", "details": "5 w/v % CLP applied 6 weeks after 9 weeks of UV irradiation", "protocol": "as §1, §2"}, "K14 protein [11]": {"test_system": "K14 protein", "test": "Epidermal K14 protein level by western blotting, wrinkle formation test (Example 2)", "format": "in vivo, hairless mice", "details": "4% CLP applied with UV irradiation, 12 weeks", "protocol": "as §3, §4"}, "[12]": {"test_system": "hairless mice exposed to ultraviolet rays (wrinkle formation)", "test": "Inhibitory effect of CLP on wrinkle formation, visual observation score (Example 2)", "format": "in vivo", "details": "4% (Wt/Vol %) CLP, 100 μL applied immediately after each UV irradiation, 12 weeks", "protocol": "The degree of wrinkles formed on the dorsal skins of the mice was determined at the start of CLP application and on the 6th week according to a visual observation score with reference to the documents described above. The score was evaluated on a scale of 7 using the scores below and mean values.\nScore 0: no wrinkle observed\nScore 1: wrinkles slightly observed\nScore 2: wrinkles observed\nScore 3: wrinkles remarkably observed\nThe same 6- to 8-week-old hairless mice as in Reference Example 1 were used and exposed to ultraviolet rays of 1 MED (minimum erythema dose) or lower. Immediately after the ultraviolet irradiation, procedures for applying 100 μL of 4% (Wt/Vol %) CLP solution (solvent: 30 Vol/Vol % ethanol/water solution) or vehicle control to the whole dorsal skin of each of the mice were performed once a day and five times a week for 12 consecutive weeks. The irradiation dose was 470 J/m^2 during the 0th (at the start of irradiation) to first week, 530 J/m^2 during the first to second week, 600 J/m^2 during the second to third week, and 670 J/m^2 during the fourth and subsequent weeks. Each of the groups comprised 10 to 12 mice.\nThe degree of wrinkles formed on the dorsal skins of the mice was determined after 12 weeks from the start of ultraviolet irradiation according to the visual observation score in the same way as in Reference Example 1."}, "K5 protein [13]": {"test_system": "K5 protein", "test": "Epidermal K5 protein level by western blotting, wrinkle formation test (Example 2)", "format": "in vivo, hairless mice", "details": "4% CLP applied with UV irradiation, 12 weeks", "protocol": "as §3, §4"}, "K16 protein [14]": {"test_system": "K16 protein", "test": "Epidermal K16 protein level by western blotting, wrinkle formation test (Example 2)", "format": "in vivo, hairless mice", "details": "4% CLP applied with UV irradiation, 12 weeks", "protocol": "as §3, §4"}},
  "data": [
    {"smiles": "N=C(N)N1CCC[C@H]1C(=O)O", "note": "[CLP, 1-carbamimidoyl-L-proline]", "values": [
      {"measurement": "visual observation score of wrinkles, 6th week compared with at the start", "setting": "[1]", "value": "significantly decreased"},
      {"measurement": "visual observation score of wrinkles, compared with control group on the 6th week", "setting": "[1]; control 30 vol % ethanol", "value": "significantly lower"},
      {"measurement": "epidermal K10 protein level", "setting": "K10 protein [2]", "value": "No significant difference"},
      {"measurement": "K1 protein level compared with vehicle control group", "setting": "K1 protein [3]", "value": "no significant difference"},
      {"measurement": "K6 protein level compared with vehicle control group", "setting": "K6 protein [4]", "value": "significantly decreased"},
      {"measurement": "epidermal K6 protein level", "setting": "K6 protein [5]", "value": "decreased to unirradiated levels"},
      {"measurement": "epidermal K5 protein level", "setting": "K5 protein [6]", "value": "hardly changed"},
      {"measurement": "K10 protein level compared with vehicle control group", "setting": "K10 protein [7]", "value": "no significant difference"},
      {"measurement": "epidermal K16 protein level", "setting": "K16 protein [8]", "value": "decreased to unirradiated levels"},
      {"measurement": "epidermal K14 protein level", "setting": "K14 protein [9]", "value": "No significant difference"},
      {"measurement": "epidermal K1 protein level", "setting": "K1 protein [10]", "value": "No significant difference"},
      {"measurement": "K14 protein level compared with vehicle control group", "setting": "K14 protein [11]", "value": "no significant difference"},
      {"measurement": "wrinkle formation (visual observation score) compared with vehicle control group", "setting": "[12]", "value": "significant inhibitory effect"},
      {"measurement": "K5 protein level compared with vehicle control group", "setting": "K5 protein [13]", "value": "no significant difference"},
      {"measurement": "K16 protein level compared with vehicle control group", "setting": "K16 protein [14]", "value": "significantly decreased"}
    ]}
  ]
}
